The text below walks through data of patent US7019112B1, “Peptides recognized by melanoma-specific A1-, A2- and A3-restricted cytoxic lymphocytes, and uses therefor” (University of Virginia Patent Foundation, priority 1996, dated 2006).

“Also recorded” adds a separate entry of the source. Where two headings read alike, the source gives them in different places. Where no end group is shown, it is not given here.

Series [1] relates to C1R-A1 cells. The series can be described thus: Chromium release assay: peptide-pulsed C1R-A1 cells, VMM15 CTL. It is filed as cell-based, human. The note with it: for reconstitution of an epitope for VMM15 CTL: C1R-A1 pulsed with 10 uM, 1 uM and 0.1 uM peptide, FIG. 22.
Series [2] concerns C1R-A1 cells. The series can be described thus: Chromium release assay: peptide-pulsed C1R-A1 cells, VMM12 CTL. The note with it: C1R-A1 pulsed with 1 to 0.03 uM peptide; FIG. 23. It is filed as cell-based, human.
Series [3] deals with tyrosinase specific CTL clone IVSB. The series is described as follows: Sensitization of target cells for lysis by tyrosinase specific CTL clone IVSB. It is filed as cell-based, human. From the text: T. Wolfei, et. al., Eur. J. Immuno. 24, 759 (1994). […] Even when target cells were pretreated with the monoclonal antibody MA2.1 in order to facilitate exogenous peptide binding to HLA-A2.1. T. Wolfei, et al., Eur. J. Immunol.

The subject of another series is T2 cells. The series can be described thus: Chromium release assay: reconstitution of epitopes on peptide-pulsed T2 cells for HLA-A2.1-restricted melanoma-specific CTL. The note with it: for reconstitution of recognition by CTL lines from 3 additional patients: 946 at 0.1–1 nM, other peptides at equal or higher concentrations, FIG. 12; for effect on epitope reconstitution: VMM5 and DM204-13 CTL, concentrations up to 10 nM; for number of CTL lines/patients recognizing the peptide: HLA-A2.1 restricted melanoma specific CTL lines; for % specific release (of Cr-51), no CTL: T2 + peptide 1 μM. As for the experimental part:
Cell-mediated killing was determined in vitro using a 4-h chromium release assay. 51Cr-labeled target cells were plated at 2×10^3 cells/well in triplicate on 96-well V-bottom plates (Costar, Cambridge, Mass.) with varying numbers of effector cells in a final volume of 250 microl. Wells containing either culture medium and target cells only or 1 M HCl and target cells served as background 51Cr release controls and total release controls, respectively. The plates were centrifuged at 100×g for 3 min and incubated at 37° C. in 5% CO2 for 4 h. The plates were again centrifuged, and 0.20 ml of medium from each well was removed for counting in a gamma counter. The cytotoxic index was calculated as: Cpm(experimental)−cpm(background)×100% Cpm(total release)−cpm(background) Lytic units were calculated for several of the cytotoxicity assays, using a software package prepared by the National. Cancer Institute (Bethesda, Md.), which solves for the equation y=A×[1−exp(−kx)], where x is the E:T ratio, y is the cytotoxic index, A is the curve maximum, and k is a constant used to calculate the slope of the best fit line. For the purposes of this study, a lytic unit was defined as the number of effector cells needed to mediate […] lysis of target cells. The number of lytic units was calculated per 10^5 effector cells (LU30 per 10^5 cells).
Effector cells were added in 100 microl assay medium to give an E:T ratio of 10:1, and were incubated at 37° C. The remainder of the assay is performed as in standard chromium release assays described above. Wells containing peptide and target cells but no CTL were used as controls to rule out toxicity of the peptides themselves.
HLA-A2.1 molecules were immunoaffinity purified from detergent lysates of the human melanoma cell line DM6. The associated peptides were released by acid extraction, separated from HLA-A2.1 and antibody by filtration, and fractionated by multiple stages of HPLC. […] L. Slingluff Jr., et al, J. Immunol. […] In FIG. 8B Fractions 2 and 3 from the separation shown in panel A were pooled and rechromatographed with a 55 minute gradient of 0 to 30% acetonitrile/0.1% heptafluorobutyric acid (HFBA) in 0.1% HFBA, collecting one-minute fractions. For both panels, peptide: fractions were incubated for 2–3h with 2×10^3 51Cr-labelled T2 cells in […] assay media per well in 96-well plates.
CTL lines VMM5 and VMM6 were generated by stimulation with autologous tumor. VMM5 CTL were maintained on allogeneic. A2.1+melanoma DM6 after specificity was obtained, C. L. Slingluff Jr. et al., J. Immunol. […] DM169-13 and DM204-13 CTL were generated by stimulation with allogeneic A2.1+melanoma DM13, N. J. Crowley et al., J. Immunol. […] LD1 CTL were stimulated on a rotating schedule of stimulating allogeneic A2.1+melanomas DM6, DM13, and DM93. DM93 is an HLA-A2.1+melanoma used as a positive control. […] T2 cells were preincubated with the peptides whose (M+H)^+ values are indicated in the legend, FIG. 12. […] Asterisks (*) mark peptides not evaluated.

For another series, the system named is T2-A3 cells. It is filed as cell-based, human.
Another series has as its system VMM12-EBV. The series can be described thus: Screen of Pmel-17/gp100 peptides for sensitizing VMM12-EBV cells for lysis by VMM18 CTL. It is filed as cell-based, human. The settings on record: Table 102 (not given).
The subject of a further series is VMM12 CTL. The series is described as follows: Recognition of Pmel-17 peptide by VMM12 CTL. It is filed as cell-based, human. From the text:
However, VMM12 CTL do recognize and lyse VMM18 melanoma cells. Because the only Class I MHC molecule shared by VMM12 and VMM18 is HLA-A3, it is evident that at least one additional shared CTL epitope is expressed by both of these tumors.

[4] abbreviates: CTL clone IVSB, read-out: half maximal lysis.
Setting [5] is: T2-A3, VMM18 CTL, FIG. 18, read-out: half maximal lysis.

With “DAEKCDICTDEY (cysteine pairing not given here) [SEQ ID NO:101]”, the “reconstitution of an epitope for VMM15 CTL” value in the series on C1R-A1 cells [1] is on record as “also recognized; also recorded: reconstituted”. Besides, in the series with C1R-A1 cells [2], the “reconstitution of an epitope for VMM12 CTL” value is “reconstituted an epitope for these VMM12 CTL, although weakly”.

As to “EKCDICTDEY (cysteine pairing not given here) [SEQ ID NO:102]”, in the series with C1R-A1 cells [1], the “reconstitution of an epitope for VMM15 CTL” value is “also recognized; also recorded: reconstituted”.

In the case of KCDICTDEY [SEQ ID NO:93], in the series on C1R-A1 cells [1], the half-maximal lysis result is given as “approximately 1 ug/ml”. Besides, the “reconstitution of an epitope for VMM15 CTL” value with C1R-A1 cells [1] is recorded as “most effective, even at the lowest concentration tested; also recorded: reconstituted”; with C1R-A1 cells [1] (listed as KCDICTDEY), “reconstitutes an epitope for VMM15 CTL”. Besides, the EC50 in the series with C1R-A1 cells [1] (read-out: half-maximal lysis) is around 1000 nM.

Regarding YMDGTMSQV [SEQ ID NO:9], the EC50 in series [3] (setting [4]) turned out to be 100 nM.

In the case of “Ala-Xaa-Tyr-Asp-Ala-Thr-Tyr-Glu-Thr, wherein Xaa=Leu or Ile [compound 1046]”, in the series on T2 cells, the “reconstitution of recognition by CTL lines from 3 additional patients” value (“reconstitution of recognition” for short) is “neither 864 nor 1046 had any detectable activity” and the “effect on epitope reconstitution” value is “no effect”.

As for “Tyr met Asn Gly Thr Met Ser Gln Val [SEQ ID NO:94]”, the “number of CTL lines/patients recognizing the peptide” value with T2 cells is “None of 4”. In addition, the EC50 in series [3] (setting [4]) is 10000 nM; in series [3] (target cells pretreated with monoclonal antibody MA2.1, read-out: concentration required to give half-maximal target cell lysis), above 1000 nM.

Turning to `CC(C)C[C@H](NC(=O)[C@@H](N)Cc1ccc(O)cc1)C(=O)N[C@@H](CCC(=O)O)C(=O)N1CCC[C@H]1C(=O)NCC(=O)N1CCC[C@H]1C(=O)N[C@H](C(=O)N[C@H](C(=O)N[C@@H](C)C(=O)O)[C@@H](C)O)C(C)C` [946L], the “% specific release (of Cr-51), no CTL” value in the series on T2 cells is -1.4%.

Regarding SMAPGNTSV [compound 864], in the series with T2 cells, the “reconstitution of recognition” value is given as “neither 864 nor 1046 had any detectable activity” and the “effect on epitope reconstitution” value is given as “no effect”.

On to “Tyr Xaa Glu Pro Gly Pro Val Thr Ala (YXEPGPVTA; not fully specified; X: randomised place (mixture)) [compound 946]”, for which, in the series with T2 cells, the “reconstitution of recognition” value was “reconstituted recognition by each of these 3 lines” and the “number of CTL lines/patients recognizing the peptide” value is given as 5 out of 5. In the series with T2 cells (read-out: half-maximal lysis, dose response curves, two of the 3 additional CTL lines), the EC50 was 0.001 to 0.01 nM. The EC50 in the series with T2 cells (read-out: half-maximal lysis, other assays) was determined as 0.001 nM.

As to ALLAVGATK [SEQ ID NO:98], the results for the EC50 in the series with T2-A3 cells (setting [5]) and with T2-A3 cells (read-out: half-maximal lysis of T2 cells expressing HLA-A3) were 1 to 10 nM and around 10 nM, respectively. The “sensitization of VMM12-EBV for lysis by VMM18 CTL” value in the series with VMM12-EBV is given as “sensitized VMM12-EBV for lysis by VMM18 CTL”. For the same molecule, the “recognition by CTL from patient VMM12” value in the series on VMM12 CTL is on record as “not recognized”.

In the case of `CC[C@H](C)[C@H](NC(=O)[C@@H](N)Cc1ccc(O)cc1)C(=O)N[C@@H](CCC(=O)O)C(=O)N1CCC[C@H]1C(=O)NCC(=O)N1CCC[C@H]1C(=O)N[C@H](C(=O)N[C@H](C(=O)N[C@@H](C)C(=O)O)[C@@H](C)O)C(C)C` [946I], in the series on T2 cells, the “% specific release (of Cr-51), no CTL” value was determined as 0.1%.

As to LLAVGATK [SEQ ID NO:4], the EC50 with T2-A3 cells (setting [5]) is above 1000 nM. Also, the “sensitization of VMM12-EBV for lysis by VMM18 CTL” value in the series on VMM12-EBV was “sensitized VMM12-EBV for lysis by VMM18 CTL”.
